Holding throughout (assay type): biochemical
The target of experiment [1] is human butyrylcholinesterase (Homo sapiens, UniProt P06276). Nature of the experiment: BChE inhibition, modified Ellman's spectrophotometric method. The note with it: for inhibition at 100 µM / inhibition at 1000 µM: read-out: BChE % inhibition. On the technique in general: DTNB colorimetry detects thiols as they appear.
The target in the next experiment is beta amyloid 1–42 (Aβ42) (Homo sapiens, UniProt P05067). Nature of the experiment: fluorometric beta amyloid 1–42. The note with it: for inhibition at 0.01 µM / inhibition at 0.1 µM / inhibition at 1 µM / inhibition at 10 µM: read-out: Percent inhibition of beta amyloid 1–42 (Aβ42) peptide aggregation.
The next experiment addresses T1, MAO-A (Homo sapiens, UniProt P21397).
T1 sequence (P21397 1-527): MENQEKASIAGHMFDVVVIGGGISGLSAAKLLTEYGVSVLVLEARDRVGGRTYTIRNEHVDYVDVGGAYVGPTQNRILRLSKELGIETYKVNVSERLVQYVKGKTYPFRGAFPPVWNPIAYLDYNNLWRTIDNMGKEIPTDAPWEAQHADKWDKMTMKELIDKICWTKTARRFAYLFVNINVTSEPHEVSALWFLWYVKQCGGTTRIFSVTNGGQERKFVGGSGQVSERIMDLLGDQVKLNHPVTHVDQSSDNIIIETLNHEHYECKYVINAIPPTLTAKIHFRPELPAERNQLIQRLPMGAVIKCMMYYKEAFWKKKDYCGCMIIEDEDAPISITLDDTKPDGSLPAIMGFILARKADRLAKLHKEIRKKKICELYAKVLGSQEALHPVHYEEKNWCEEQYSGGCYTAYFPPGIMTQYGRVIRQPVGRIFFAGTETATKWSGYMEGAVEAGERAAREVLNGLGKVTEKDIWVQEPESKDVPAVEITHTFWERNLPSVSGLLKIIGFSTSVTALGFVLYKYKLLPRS
Nature of the experiment: MAO-A inhibition, in vitro fluorometric method. The note with it: for inhibition at 100 µM / inhibition at 1000 µM: read-out: MAO-A % inhibition.

In a further experiment the target is T2, MAO-B (Homo sapiens, UniProt P27338).
T2 sequence (P27338 1-520): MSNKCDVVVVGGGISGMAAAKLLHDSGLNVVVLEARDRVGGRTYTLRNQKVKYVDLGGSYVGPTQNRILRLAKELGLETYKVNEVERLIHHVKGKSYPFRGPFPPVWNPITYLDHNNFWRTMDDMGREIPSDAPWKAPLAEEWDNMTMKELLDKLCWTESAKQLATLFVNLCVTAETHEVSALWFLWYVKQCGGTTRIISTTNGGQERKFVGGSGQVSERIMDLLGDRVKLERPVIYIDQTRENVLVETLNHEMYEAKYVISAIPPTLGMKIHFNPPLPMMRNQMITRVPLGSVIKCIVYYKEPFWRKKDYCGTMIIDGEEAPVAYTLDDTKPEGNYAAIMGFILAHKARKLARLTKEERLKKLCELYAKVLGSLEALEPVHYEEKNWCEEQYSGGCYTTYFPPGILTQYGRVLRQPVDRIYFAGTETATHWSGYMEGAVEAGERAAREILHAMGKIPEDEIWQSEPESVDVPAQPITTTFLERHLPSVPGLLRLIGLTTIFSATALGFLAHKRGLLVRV
Nature of the experiment: MAO-B inhibition, in vitro fluorometric method. As to conditions: for inhibition at 1000 µM: read-out: MAO-B % inhibition, 10^−3 M; for inhibition at 100 µM: read-out: MAO-B % inhibition, 10^−4 M.

Experiment [2] addresses Human acetylcholinesterase (Homo sapiens, UniProt P22303). Nature of the experiment: AChE inhibition, modified Ellman's spectrophotometric method. As to conditions: for inhibition at 1000 µM: read-out: AChE % inhibition, 10^−3 M; for inhibition at 100 µM: read-out: AChE % inhibition, 10^−4 M.

Each structure is given as a SMILES string.

Chain of human butyrylcholinesterase (P06276 29-602): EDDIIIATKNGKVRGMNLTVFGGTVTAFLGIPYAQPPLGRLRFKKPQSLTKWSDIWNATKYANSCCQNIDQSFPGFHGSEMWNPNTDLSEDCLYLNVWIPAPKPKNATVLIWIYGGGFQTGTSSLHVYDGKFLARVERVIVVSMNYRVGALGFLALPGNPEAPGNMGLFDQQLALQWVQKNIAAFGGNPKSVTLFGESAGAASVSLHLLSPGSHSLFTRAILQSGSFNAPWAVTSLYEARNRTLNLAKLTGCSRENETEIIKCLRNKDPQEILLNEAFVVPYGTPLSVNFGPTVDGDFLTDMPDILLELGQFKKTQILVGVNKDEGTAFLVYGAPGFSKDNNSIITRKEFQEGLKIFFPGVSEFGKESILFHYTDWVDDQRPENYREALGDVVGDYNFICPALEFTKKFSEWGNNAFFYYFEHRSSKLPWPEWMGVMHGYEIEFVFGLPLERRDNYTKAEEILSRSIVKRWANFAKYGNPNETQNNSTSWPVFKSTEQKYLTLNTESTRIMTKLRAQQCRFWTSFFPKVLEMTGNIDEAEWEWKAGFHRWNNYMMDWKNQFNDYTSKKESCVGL
Chain of beta amyloid 1–42 (Aβ42) (P05067 672-713): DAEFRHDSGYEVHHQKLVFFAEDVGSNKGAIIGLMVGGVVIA
Chain of Human acetylcholinesterase (P22303 32-614): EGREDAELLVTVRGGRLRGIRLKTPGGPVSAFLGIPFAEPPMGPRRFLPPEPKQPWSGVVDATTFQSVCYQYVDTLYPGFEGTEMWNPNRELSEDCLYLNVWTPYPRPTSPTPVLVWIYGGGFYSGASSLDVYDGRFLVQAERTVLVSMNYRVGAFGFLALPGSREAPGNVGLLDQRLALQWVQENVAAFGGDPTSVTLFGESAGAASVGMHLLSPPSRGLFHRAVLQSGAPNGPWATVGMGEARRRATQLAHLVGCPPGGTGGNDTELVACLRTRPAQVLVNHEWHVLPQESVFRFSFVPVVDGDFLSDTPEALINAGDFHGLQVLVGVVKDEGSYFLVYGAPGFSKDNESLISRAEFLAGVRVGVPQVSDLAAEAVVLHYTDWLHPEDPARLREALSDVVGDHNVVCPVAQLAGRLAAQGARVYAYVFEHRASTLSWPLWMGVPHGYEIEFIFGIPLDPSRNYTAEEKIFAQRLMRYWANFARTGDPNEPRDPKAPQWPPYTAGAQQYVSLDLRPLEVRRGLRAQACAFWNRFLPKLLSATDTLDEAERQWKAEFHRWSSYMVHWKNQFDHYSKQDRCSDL

What is called IC50 is the midpoint of a concentration-inhibition curve. Lower therefore signals greater potency in that assay. The term inhibition denotes the share of the control response that was lost under treatment. As for `C#CCN1CCN(Cc2ccc(C(=O)Nc3nc4ccccc4s3)cc2)CC1` [4d, N-(Benzo[d]thiazol-2-yl)-4-((4-(prop-2-yn-1-yl)piperazine-1-yl)methyl)benzamide], in experiment [1], the IC50 is greater than 1000 µM, the inhibition at 100 µM came out at 28.4 ± 0.9% and the inhibition at 1000 µM was found to be 37.1 ± 0.8%. Moreover, on beta amyloid 1–42 (Aβ42), the IC50 was 0.242 ± 0.0097 µM, the inhibition at 0.01 µM is 36.2 ± 1%, the inhibition at 0.1 µM is 55.2 ± 1.4% and the inhibition at 1 µM was 81.5 ± 2.5%. Besides, the inhibition at 10 µM at beta amyloid 1–42 (Aβ42) was 89.8 ± 3%. Besides, on MAO-A, the IC50 is greater than 100 µM, the inhibition at 100 µM stood at 39.7 ± 0.9% and the inhibition at 1000 µM was determined as 57.6 ± 0.9%. Besides, the midpoint of inhibition on MAO-B, the IC50, lay at 0.11 ± 0.0043 µM. Also, in experiment [2], the 50% inhibitory concentration (IC50) was 0.0896 ± 0.0032 µM and the inhibition at 1000 µM was found to be 91.6 ± 1.3%.

Take `C#CCN1CCN(Cc2ccc(C(=O)Nc3nc4cc(OC)ccc4s3)cc2)CC1` [4k, N-(5-Methoxybenzo[d]thiazol-2-yl)-4-((4-(prop-2-yn-1-yl)piperazine-1-yl)methyl)benzamide]: in experiment [1], the IC50 is greater than 1000 µM, the inhibition at 100 µM is 26.4 ± 0.7% and the inhibition at 1000 µM is 30.4 ± 0.7%. For the same compound, at beta amyloid 1–42 (Aβ42), the inhibition at 0.01 µM came to 35.4 ± 1%, the inhibition at 0.1 µM amounted to 48.9 ± 1.3%, the inhibition at 1 µM was 77.7 ± 2.7% and the inhibition at 10 µM was 87.1 ± 3.2%. At MAO-A, the IC50 is greater than 100 µM, the inhibition at 100 µM is 39.9 ± 0.8% and the inhibition at 1000 µM stood at 58.6 ± 0.9%. At MAO-B, this compound had an IC50 of 0.124 ± 0.0058 µM. In experiment [2], it took 0.102 ± 0.0048 µM to reach half-maximal inhibition (IC50) and the inhibition at 1000 µM was 90.3 ± 1.5%.

For `COc1ccc2sc(NC(=O)c3ccc(CN4CCN(C)CC4)cc3)nc2c1` [4h, N-(5-Methoxybenzo[d]thiazol-2-yl)-4-((4-methylpiperazine-1-yl)methyl)benzamide], in experiment [1], the half-inhibitory concentration (IC50) was greater than 1000 µM, the inhibition at 100 µM came to 27 ± 0.7% and the inhibition at 1000 µM stood at 33.5 ± 0.8%. Also, at beta amyloid 1–42 (Aβ42), half-maximal inhibition (IC50) required 0.296 ± 0.013 µM, the inhibition at 0.01 µM came to 41.8 ± 1%, the inhibition at 0.1 µM was found to be 64.8 ± 1.9% and the inhibition at 1 µM came to 83.2 ± 3.3%. Further, the inhibition at 10 µM at beta amyloid 1–42 (Aβ42) is 90.7 ± 2.9%. At MAO-A, the IC50 is greater than 100 µM, the inhibition at 100 µM came to 38.5 ± 0.6% and the inhibition at 1000 µM is 60.5 ± 0.9%. Inhibition against MAO-B was half-maximal at 0.0851 ± 0.0038 µM (IC50). Besides, in experiment [2], the IC50 is 0.0649 ± 0.0029 µM and the inhibition at 1000 µM was found to be 92.3 ± 1.1%.

For `COc1ccc2sc(NC(=O)c3ccc(CN4CCN(C(C)C)CC4)cc3)nc2c1` [4l, 4-((4-Isopropylpiperazine-1-yl)methyl)-N-(5-methoxybenzo[d]thiazol-2-yl)benzamide], the concentration for half-maximal inhibition (IC50) in experiment [1] was greater than 1000 µM; on MAO-A, greater than 1000 µM; against MAO-B, greater than 100 µM; in experiment [2], greater than 100 µM. The inhibition at 100 µM in experiment [1] came to 24.3 ± 0.7%; at MAO-A, 34 ± 0.9%; at MAO-B, 40.7 ± 0.9%; in experiment [2], 48.1 ± 0.9%. Also, the inhibition at 1000 µM is 38.1 ± 0.9% in experiment [1], 40.6 ± 0.9% on MAO-A, 77.9 ± 1.4% on MAO-B and 81.7 ± 1.3% in experiment [2].

In the case of `COc1ccc2sc(NC(=O)c3ccc(CN4CCN(CCCN(C)C)CC4)cc3)nc2c1` [4n, 4-((4-(3-(Dimethylamino)propyl)piperazine-1-yl)methyl)-N-(5-methoxybenzo[d]thiazol-2-yl)benzamide], the IC50 in experiment [1] was greater than 1000 µM; against MAO-A it was greater than 100 µM; on MAO-B, greater than 100 µM; in experiment [2], 0.0421 ± 0.0018 µM. Also, the inhibition at 100 µM in experiment [1] was determined as 30.4 ± 0.9%; on MAO-A it was 38.8 ± 0.7%; on MAO-B, 41 ± 0.9%. For the same compound, the inhibition at 1000 µM in experiment [1] came out at 40.9 ± 0.9%; on MAO-A, 60.1 ± 0.8%; on MAO-B it was 70.3 ± 1.3%; in experiment [2] it was 95.3 ± 1.7%.

Regarding `C=CCN1CCN(Cc2ccc(C(=O)Nc3nc4cc(OC)ccc4s3)cc2)CC1` [4j, 4-((4-Allylpiperazine-1-yl)methyl)-N-(5-methoxybenzo[d]thiazol-2-yl)benzamide], the IC50 in experiment [1] was greater than 1000 µM; against MAO-A, greater than 1000 µM; against MAO-B, greater than 100 µM; in experiment [2] it was greater than 100 µM. Also, the inhibition at 100 µM was determined as 22.6 ± 0.8% in experiment [1], 32.9 ± 0.7% at MAO-A, 43.5 ± 0.8% on MAO-B and 47.6 ± 0.8% in experiment [2]. The inhibition at 1000 µM worked out at 32.9 ± 0.8% in experiment [1], 45.2 ± 0.9% on MAO-A, 74.5 ± 1.1% at MAO-B and 82.5 ± 1.5% in experiment [2].

For `C=CCN1CCN(Cc2ccc(C(=O)Nc3nc4ccccc4s3)cc2)CC1` [4c, 4-((4-Allylpiperazine-1-yl)methyl)-N-(benzo[d]thiazol-2-yl)benzamide], the IC50 in experiment [1] is greater than 1000 µM; at MAO-A, greater than 1000 µM; against MAO-B, greater than 100 µM; in experiment [2], greater than 100 µM. Also, the inhibition at 100 µM in experiment [1] stood at 20.2 ± 0.7%; at MAO-A, 34.6 ± 0.8%; at MAO-B, 40.3 ± 0.9%; in experiment [2] it was 48.2 ± 0.9%. Besides, the inhibition at 1000 µM in experiment [1] turned out to be 30.9 ± 0.7%; on MAO-A it was 48.3 ± 0.9%; on MAO-B it was 69.6 ± 1.2%; in experiment [2], 82.8 ± 1.5%.

Consider `CCN1CCN(Cc2ccc(C(=O)Nc3nc4cc(OC)ccc4s3)cc2)CC1` [4i, 4-((4-Ethylpiperazine-1-yl)methyl)-N-(5-methoxybenzo[d]thiazol-2-yl)benzamide], for which the IC50 in experiment [1] is greater than 1000 µM; against MAO-A, greater than 1000 µM; against MAO-B, greater than 100 µM; in experiment [2] it was greater than 100 µM. Besides, the inhibition at 100 µM in experiment [1] is 25.2 ± 0.9%; on MAO-A it was 30.6 ± 0.7%; at MAO-B, 41.7 ± 0.9%; in experiment [2], 48 ± 0.9%. The inhibition at 1000 µM in experiment [1] stood at 39.8 ± 0.9%; on MAO-A, 43.8 ± 0.9%; on MAO-B, 75.6 ± 1.2%; in experiment [2] it was 86.9 ± 1.2%.

In the case of `O=C(NCCN1CCOCC1)c1ccc(Cl)cc1` [Moc., moclobemide, reference compound], on MAO-A, the inhibition at 100 µM was 82.1 ± 2.7% and the inhibition at 1000 µM amounted to 94.1 ± 2.8%.

For the compound `CCN1CCN(Cc2ccc(C(=O)Nc3nc4ccccc4s3)cc2)CC1` [4b, N-(Benzo[d]thiazol-2-yl)-4-((4-ethylpiperazine-1-yl)methyl)benzamide], the IC50 in experiment [1] was greater than 1000 µM; against MAO-A, greater than 1000 µM; on MAO-B, greater than 100 µM; in experiment [2], greater than 100 µM. Besides, the inhibition at 100 µM in experiment [1] is 24.4 ± 0.6%; at MAO-A, 36.4 ± 0.8%; on MAO-B, 42.3 ± 0.8%; in experiment [2], 47.6 ± 0.8%. Further, the inhibition at 1000 µM in experiment [1] was found to be 35.7 ± 0.9%; at MAO-A, 46.5 ± 0.8%; at MAO-B, 73.3 ± 1.2%; in experiment [2], 85.6 ± 1.3%.

Turning to `CC(C)N1CCN(Cc2ccc(C(=O)Nc3nc4ccccc4s3)cc2)CC1` [4e, N-(Benzo[d]thiazol-2-yl)-4-((4-isopropylpiperazine-1-yl)methyl)benzamide], the IC50 in experiment [1] was greater than 1000 µM; on MAO-A it was greater than 1000 µM; on MAO-B, greater than 100 µM; in experiment [2], greater than 100 µM. Further, the inhibition at 100 µM worked out at 26.8 ± 0.7% in experiment [1], 33.8 ± 0.7% on MAO-A, 44.6 ± 0.8% on MAO-B and 46.9 ± 0.8% in experiment [2]. In addition, the inhibition at 1000 µM in experiment [1] is 39.1 ± 0.8%; on MAO-A, 44.7 ± 0.9%; on MAO-B it was 72.7 ± 1.1%; in experiment [2] it was 83.9 ± 1.7%.

As to `CN(C)CCCN1CCN(Cc2ccc(C(=O)Nc3nc4ccccc4s3)cc2)CC1` [4g, N-(Benzo[d]thiazol-2-yl)-4-((4-(3-(dimethylamino)propyl)piperazine-1-yl)methyl)benzamide], the half-maximal inhibitory concentration (IC50) in experiment [1] was greater than 1000 µM; on MAO-A it was greater than 100 µM; on MAO-B, greater than 100 µM; in experiment [2], 0.0367 ± 0.0014 µM. The inhibition at 100 µM in experiment [1] was 30.9 ± 0.8%; on MAO-A, 40.1 ± 0.9%; at MAO-B it was 42.5 ± 0.9%. The inhibition at 1000 µM in experiment [1] came to 41.5 ± 0.8%; on MAO-A, 64.9 ± 1.1%; on MAO-B it was 74.2 ± 1%; in experiment [2] it was 94.3 ± 1%.

The values above are taken from paper PMC9389372 (RSC Advances, 2022).
